# In US20250149635A1, “SILICATE PLATFORM AS WEAKLY-COORDINATING ANIONS FOR DIVERSE ORGANOMETALLIC TRANSFORMATIONS AND ELECTROCHEMICAL APPLICATIONS” (California Institute of Technology, priority 2023, published 2025):
# Experiments:
# [1] = Cyclic voltammetry of Mg deposition/stripping in DME; format: physicochemical; settings: for deposition overpotential: 0.25-0.26 M in DME with 10 mM Me2Mg, Pt wire WE, 25 mVs^−1; for oxidative stability: in DME, with 10 mM Me2Mg, sweep to 4.75 V
# Procedure: FIG. 14A: Cyclic voltammetry experiments of 0.26 M 1-[Mg(DME)3] with 10 mM of Me2Mg. WE: Pt wire; CE: Mg strip; RE: Mg strip; Scan rate: 25 mVs^−1; Cycling protocol: −0.8 V to 4.0 V, 100 cycles. FIG. 14B: Cycles 1, 25, 50, 75, 100. FIG. 14C: Coulombic efficiency cycles 1-100; Cyclic voltammetry experiments of 0.26 M 1-[Mg(DME)3] with 10 mM of Me2Mg.
# FIG. 15A: Cyclic voltammetry experiments of 0.25 M 2-[Mg(DME)3] with 10 mM of Me2Mg. WE: Pt wire; CE: Mg strip; RE: Mg strip; Scan rate: 25 mVs^−1; Cycling protocol: −0.8 V to 3.8 V, 100 cycles; FIG. 15B: Cycles 1, 25, 50, 75, 100. FIG. 15C: Coulombic efficiency cycles 1-100; Cyclic voltammetry experiments of 0.25 M 2-[Mg(DME)3] with 10 mM of Me2Mg.
# FIG. 20: Cyclic voltammetry experiments of 0.26 M 1-[Mg(DME)3] in DME.WE: Pt wire; CE: Mg strip; RE: Mg strip; Scan rate: 25 mVs^−1; Cycling protocol: −0.8 V to 4.0 V, 200 cycles.
# Cyclic voltammetry experiments of 1-[Mg(DME)3] were run in an empty N2-filled glovebox fitted with a purifier system that consists of a purifier cartridge (ca. 50% activated 4 Å molecular sieves and activated Cu catalyst) and a circulator fan, no solvent or chemicals were stored in the glovebox. Electrolyte solutions were prepared in a separate glovebox by dissolving 1-[Mg(DME)3] in 500 μL of DME and stirred with a new Teflon stir bar until complete dissolution. DME and 1-[Mg(DME)3] were only used with the glovebox circulation purifier turned off after extensive (minimum 20 minutes at […] above atmospheric pressure to ensure full atmosphere exchange) purging of the glovebox atmosphere to avoid cross-contamination with other atmospheric solvents. Upon complete dissolution of the electrolyte, the electrolyte solution was sealed and transported to the electrochemistry glovebox immediately before electrochemical experiments were performed.
# Mg electrodes (99.9%, MTI) were polished with a razor blade immediately before use. Pt electrodes (wire, 0.5 mm diameter, 99.995%, Thermo Scientific) were soaked in concentrated HNO3 for at least 72 hours, rinsed with deionized water at least thrice, annealed with an H2 torch, and immediately brought into the glovebox in a flame-dried 20 mL scintillation vial while hot. Cyclic voltammetry experiments of 1-[Mg(DME)3] were performed in glass cells with 0.5 mL of electrolyte. A Pt wire served as the working electrode (WE), and Mg foils were the counter and reference electrodes (CE and RE). Experiments of 1-[Mg(DME)3] were conducted on either a Biologic SP150 potentiostat or a Biologic VSP-300 potentiostat.
# [2] = Cyclic and linear sweep voltammetry of 0.1 M tetra-n-butylammonium salts in MeCN (electrochemical stability window); format: physicochemical
# Excerpt: FIG. 12: Cyclic voltammetry and linear sweep voltammetry experiments of 0.1 M 1-[Bu4N] and [Bu4N][PF6] in MeCN; Current shown were normalized to the highest current in each experiment; FIG. 12A: Cyclic voltammogram of 1-[Bu4N] in MeCN; WE: Glassy carbon; CE: Pt wire; RE: Ag wire; scan rate=100 mVs^−1; FIGS. 12B and 12C: Linear sweep voltammograms of 0.1 M 1-[Bu4N] and [Bu4N][PF6] in MeCN; WE: Glassy carbon; CE: Pt wire; RE: Ag wire; scan rate=50 mVs^−1.
# Linear sweep voltammetry experiments of 1-[Bu4N] and [Bu4N][PF6] were performed under an N2 atmosphere using a Pine Instrument Company AFCBP1 bipotentiostat using the AfterMath software package. Linear sweep voltammograms were recorded in the glovebox at 25° C. with an auxiliary Pt-coil counter electrode, Ag-wire reference electrode, and 3.0 mm glassy carbon working electrode (BASI). The electrolyte solution was 0.1 M of the corresponding tetra-n-butylammonium salt in MeCN. All reported values are referenced to an internal ferrocene/ferrocenium couple.
# [3] = calculated, literature ref. 47; cited from earlier work
# [4] = C2H4/CO copolymerization trials with cationic Pd catalyst
# Procedure: In a N2 glovebox, Pd catalyst (10 μmol) was dissolved in toluene (10 mL) was transferred to a Fisher-Porter vessel. The reactor was removed from the glovebox and connected to a C2H4/CO gas feed. The N2 atmosphere was replaced with a 1:1 mixture of C2H4/CO (flow rate 300 sccm for each gas) by pressurizing the vessel to 100 psi and venting 3×. After pressurizing to 100 psi, polymerization was run for 3 hr at RT. The reaction was quenched upon exposure to air, and the polymer was precipitated by stirring with acidic methanol (0.6 mL HCl/10 mL MeOH). The polymer was collected and dried under vacuum overnight.
# NMRs were recorded in a mixture of 1, 1, 1, 3, 3, 3-hexafluoro-2-propanol and C6D6 (4:1) at RT.
# [5] = Solubility determination by 19F NMR with fluorobenzene internal standard
# Procedure: Each sample was filtered, and 600 μL was transferred to a new vial. Fluorobenzene (5 μL) was added as an internal standard to the filtered solution and mixed thoroughly via pipette.
# [6] = 10 μmol Pd catalyst in toluene, 100 psi 1:1 C2H4/CO, 3 hr at RT
# [7] = 0.1 M Bu4N salt in MeCN, glassy carbon WE
molecule,measurement,setting,value
"COCCOC.COCCOC.COCCOC.C[Si-]12(OC(C(F)(F)F)(C(F)(F)F)C(C(F)(F)F)(C(F)(F)F)O1)OC(C(F)(F)F)(C(F)(F)F)C(C(F)(F)F)(C(F)(F)F)O2.C[Si-]12(OC(C(F)(F)F)(C(F)(F)F)C(C(F)(F)F)(C(F)(F)F)O1)OC(C(F)(F)F)(C(F)(F)F)C(C(F)(F)F)(C(F)(F)F)O2.[Mg+2] [1-[Mg(DME)3], [Mg(DME)3][^MeSi^F24]2]",deposition overpotential,[1],ca. −420 mV vs. Mg/Mg^2+
same,"reductive overpotential, stabilized over continuous cycling","[1]; 0.26 M in DME, absence of Me2Mg",ca. 400 mV
same,"coulombic efficiency, stabilized with cycling","[1]; 0.26 M in DME, absence of Me2Mg, −0.8 to 2.0 V vs. Mg/Mg^2+",ca. 96%
[Bu4N][^MeSi^F24] [1-[Bu4N]],electrochemical stability window,[2]; in MeCN,ca. 7.5 V
(MeCN)Si(O2C6F12)2,fluoride affinity,[3],113 kcal/mol
[Pd(dppe)(NCMe)Me][^tBu2ArSi^F24] [3-[Pd(dppe)(NCMe)Me]],Activity,[4]; [6],1.67 g/mmol/h
same,Polymer Yield,[4]; [6],50.2
same,Activity,[4]; 100 psi of C2H4/CO,1.7 g/mmol/h
[Pd(dppe)(NCMe)Me]^+[^MeSi^F24],Activity,[4]; [6],1.06 g/mmol/h
same,Polymer Yield,[4]; [6],31.9
"F[P-](F)(F)(F)(F)F [PF6^−, reference compound]",reductive stability,[2]; [7],ca. −3.1 V vs. Fc/Fc^+
[K][^tBu2ArSi^F24] [3-[K]],solubility in CH2Cl2 (in words),[5]; CH2Cl2,high solubility
same,solubility in benzene,"[5]; in benzene, stirred 16 hr, filtered, 19F NMR",100 µM
same,solubility in dichloromethane,"[5]; in dichloromethane, 19F NMR",400 µM
C[Si-]12(OC(C(F)(F)F)(C(F)(F)F)C(C(F)(F)F)(C(F)(F)F)O1)OC(C(F)(F)F)(C(F)(F)F)C(C(F)(F)F)(C(F)(F)F)O2 [[^MeSi^F24]],oxidative stability (stable up to),[2]; [7],up to 4.5 V vs. Fc/Fc^+
same,reductive stability,[2]; [7],ca. −3.1 V vs. Fc/Fc^+
same,electrochemical stability window,[2]; in MeCN,7.5 V
same,oxidative stability surpassing that of PF6^−,"[2]; in MeCN, versus [Bu4N][PF6]",ca. 1 V
same,oxidative stability,[1],ca. 4.2 V vs. Mg/Mg^2+
[Mg(DME)3][^PhSi^F24]2 [2-[Mg(DME)3]],deposition overpotential,[1],ca. −350 mV vs. Mg/Mg^2+
same,oxidative stability,[1],ca. 4.05 V vs. Mg/Mg^2+
[F][Sb]([F])([F])([F])[F] [SbF5],fluoride affinity,[3],120 kcal/mol
"CC#N.FC(F)(F)c1cc([B-](c2cc(C(F)(F)F)cc(C(F)(F)F)c2)(c2cc(C(F)(F)F)cc(C(F)(F)F)c2)c2cc(C(F)(F)F)cc(C(F)(F)F)c2)cc(C(F)(F)F)c1.[CH3][Pd+]1[PH](c2ccccc2)(c2ccccc2)CC[PH]1(c1ccccc1)c1ccccc1 [[Pd(dppe)(NCMe)Me]^+[BAr^F24]^−, [Pd(dppe)(NCMe)Me][BAr^F24], reference compound]",Activity,[4]; [6],2.28 g/mmol/h
same,Polymer Yield,[4]; [6],68.6
same,Activity,[4]; 100 psi of C2H4/CO,2.3 g/mmol/h
